Results: patent US20090181986A1, “SUBSTITUTED HETEROCYCLIC COMPOUNDS” (priority 2007, published 2009)

Columns and labels:
[1] = target: wild-type human cardiac sodium channel, hNav1.5 (Homo sapiens, UniProt Q14524); test: Late INa screening assay (PatchXpress whole cell patch clamp, late current generated with Tefluthrin or ATX II); type: cell-based; settings: for Late INa % blk / inhibition at 10 µM: test compound at 10 μM; for inhibition at 10 µM: read-out: Late INa % blk; for effect on late sodium current: late INa assay, compounds tested at 10 μM
Procedure: The late sodium current (Late INa) and peak sodium current (Peak INa) assays are performed on an automated electrophysiology platform, PatchXpress 7000A (MDS Analytical Technologies, Sunnyvale, Calif.), which uses the whole cell patch clump technique to measure currents through the cell membrane of up to 16 cells at a time. The assay uses an HEK293 (human embryonic kidney) cell line heterologously expressing the wild-type human cardiac sodium channel, hNav1.5, purchased from Millipore (Billerica, Mass.). No beta subunits were coexpressed with the Na channel alpha subunit. […] Experiments are carried out at 24-27° C.
For both the Late INa and Peak INa assays, series resistance compensation is set to 50% and whole-cell compensation is performed automatically. […] Currents through open sodium channels are automatically recorded and stored in the DataXpress2 database (MDS Analytical Technologies, Sunnyvale, Calif.). Analysis is performed using DataXpress2 analysis software and data are compiled in Excel.
Compound stocks are routinely made in glass vials to 10 mM in dimethyl sulfoxide (DMSO). In some cases, when compounds are not soluble in DMSO, they are made in 100% ethanol. Stocks are sonicated as necessary. The extracellular solution for screening Late INa is composed of: 140 mM NaCl, 4 mM KCl, 1.8 mM CaCl2, 0.75 mM MgCl2, and 5 mM HEPES with pH adjusted to 7.4 using NaOH. The extracellular solution for screening Peak INa is composed of: 20 mM NaCl, 120 mM N-methyl-D glucamine, 4 mM KCl, 1.8 mM CaCl2, 0.75 mM MgCl2, and 5 mM HEPES with pH adjusted to 7.4 using HCl. The intracellular solution used to perfuse the inside of the cells for both the Late INa and Peak INa assays contains: 120 mM CsF, […], 5 mM EGTA, 5 mM HEPES and pH adjusted to 7.4 with CsOH. […] The ONa extracellular solution used at the end of each experiment for the Late INa and Peak INa assays to measure baseline current contains: 140 mM N-methyl-D-glucamine; 4 mM KCl; 1.8 mM CaCl2; 0.75 mM MgCl2; 5 mM HEPES and pH was adjusted to 7.4 with HCl.
For the Late INa assay, sodium channels are activated every 10 seconds (0.1 Hz) by depolarizing the cell membrane to −20 mV for 250 milliseconds (ms) from a holding potential of −120 mV.
All compounds are tested to determine their activity in blocking the late sodium current. Late INa current is generated by adding 10 μM Tefluthrin (pyrethroid) to the extracellular solution while recording Na currents. […] For some experiments, 50 nM ATX II (sea anemone toxin), another late INa activator, was used to generate the late component. […] Baseline current in the absence of Na^+ ions is measured at the end of each experiment (after two additions of 0 Na solution—see above) and is used to calculate the percent block by compound.

[2] = target: hERG potassium channel (Homo sapiens, UniProt Q12809); test: hERG screening assay (PatchXpress patch clamp, CHO cells)
[3] = tested on: L-type calcium channel; test: L-type calcium channel activity well-plate assay (IMR-32 cells, Ca-4 dye, FlexStation); type: cell-based, human
Procedure: Cell Culture: IMR-32 (human neuroblastoma) cells were obtained from The American Type Culture Collection. The cells were maintained in MEM supplemented with 10% fetal bovine serum, 2 mM of L-glutamine, 100 IU/ml of penicillin, 50 μg/ml of streptomycin, 1% of sodium pyruvate, 1% of sodium bicarbonate and 1% of non-essential amino acid. […] Culture medium was changed every two days and cells were recultivated when they reached 70-80% confluent.
Assay: IMR-32 cells were seeded on a Microtest 96-well Assay Plate (BD FALCON™) at a density of 200,000 cells/well in 200 μl culture medium for overnight. The culture medium was removed, and replaced by 120 μl Ca-4 dye (MDS Analytical Technologies, Sunnyvale, Calif.) in HBSS (1× Hank's Balanced Salt solution plus 20 mM HEPES, pH 7.4) containing 2 mM probenecid. Cells were then incubated for 1 hour at 37° in incubator. Testing compounds were diluted from 5 μM-50 μM in HBSS, and 40 μl were added in cells before assay. […] The inhibition of L-type calcium channel activity by compounds was then calculated.

wild-type human cardiac sodium channel, hNav1.5, sequence (Q14524 whole entry): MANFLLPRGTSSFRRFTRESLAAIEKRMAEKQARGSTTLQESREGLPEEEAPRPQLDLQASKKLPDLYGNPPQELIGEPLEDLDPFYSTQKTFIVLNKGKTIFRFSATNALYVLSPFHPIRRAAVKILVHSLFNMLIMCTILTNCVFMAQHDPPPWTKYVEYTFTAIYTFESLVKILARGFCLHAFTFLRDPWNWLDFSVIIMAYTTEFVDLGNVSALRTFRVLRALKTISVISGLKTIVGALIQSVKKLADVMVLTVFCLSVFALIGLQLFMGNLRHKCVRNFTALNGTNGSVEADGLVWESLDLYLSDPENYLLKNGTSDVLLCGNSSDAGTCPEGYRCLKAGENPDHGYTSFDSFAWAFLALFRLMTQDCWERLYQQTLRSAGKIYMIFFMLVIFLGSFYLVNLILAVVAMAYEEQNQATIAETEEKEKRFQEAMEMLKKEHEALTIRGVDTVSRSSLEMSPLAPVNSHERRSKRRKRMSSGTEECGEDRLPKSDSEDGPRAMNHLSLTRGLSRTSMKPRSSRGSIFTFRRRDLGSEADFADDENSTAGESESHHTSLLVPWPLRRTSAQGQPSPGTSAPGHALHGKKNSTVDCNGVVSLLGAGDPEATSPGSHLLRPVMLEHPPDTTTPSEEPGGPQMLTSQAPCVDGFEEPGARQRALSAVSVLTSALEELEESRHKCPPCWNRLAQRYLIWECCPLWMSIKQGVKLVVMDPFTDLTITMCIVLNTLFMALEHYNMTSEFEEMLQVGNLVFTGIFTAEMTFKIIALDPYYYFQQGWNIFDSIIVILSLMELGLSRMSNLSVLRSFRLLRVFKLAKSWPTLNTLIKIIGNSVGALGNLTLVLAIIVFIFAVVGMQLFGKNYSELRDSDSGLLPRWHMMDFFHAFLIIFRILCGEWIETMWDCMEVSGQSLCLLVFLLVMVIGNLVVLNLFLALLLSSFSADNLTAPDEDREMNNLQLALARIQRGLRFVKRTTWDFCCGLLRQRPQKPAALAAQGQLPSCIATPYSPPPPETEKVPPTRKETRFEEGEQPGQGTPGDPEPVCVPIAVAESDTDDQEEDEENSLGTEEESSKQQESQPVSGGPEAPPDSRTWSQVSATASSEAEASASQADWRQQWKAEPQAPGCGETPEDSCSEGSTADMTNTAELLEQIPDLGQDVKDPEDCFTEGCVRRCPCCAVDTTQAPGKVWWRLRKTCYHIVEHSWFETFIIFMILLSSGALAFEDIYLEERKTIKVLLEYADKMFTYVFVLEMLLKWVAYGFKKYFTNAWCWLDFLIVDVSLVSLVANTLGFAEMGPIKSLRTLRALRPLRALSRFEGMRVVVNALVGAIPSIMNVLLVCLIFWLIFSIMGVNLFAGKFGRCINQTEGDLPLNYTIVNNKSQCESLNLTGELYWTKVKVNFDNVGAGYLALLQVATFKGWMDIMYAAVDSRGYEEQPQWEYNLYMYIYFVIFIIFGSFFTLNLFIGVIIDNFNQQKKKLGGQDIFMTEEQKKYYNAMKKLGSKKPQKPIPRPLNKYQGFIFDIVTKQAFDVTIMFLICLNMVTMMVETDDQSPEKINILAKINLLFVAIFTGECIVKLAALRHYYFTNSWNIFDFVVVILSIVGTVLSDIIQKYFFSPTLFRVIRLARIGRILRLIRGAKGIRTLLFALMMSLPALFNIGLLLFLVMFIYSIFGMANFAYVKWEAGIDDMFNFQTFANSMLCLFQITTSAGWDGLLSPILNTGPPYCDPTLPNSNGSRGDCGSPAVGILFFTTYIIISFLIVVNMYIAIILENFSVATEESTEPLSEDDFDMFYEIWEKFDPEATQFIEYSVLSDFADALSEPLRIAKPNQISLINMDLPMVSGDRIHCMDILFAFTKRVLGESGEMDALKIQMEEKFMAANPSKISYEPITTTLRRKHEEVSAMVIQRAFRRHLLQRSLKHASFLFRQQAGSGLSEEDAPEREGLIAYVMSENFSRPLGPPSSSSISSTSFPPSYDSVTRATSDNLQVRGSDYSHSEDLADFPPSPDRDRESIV
hERG potassium channel, sequence (Q12809 whole entry): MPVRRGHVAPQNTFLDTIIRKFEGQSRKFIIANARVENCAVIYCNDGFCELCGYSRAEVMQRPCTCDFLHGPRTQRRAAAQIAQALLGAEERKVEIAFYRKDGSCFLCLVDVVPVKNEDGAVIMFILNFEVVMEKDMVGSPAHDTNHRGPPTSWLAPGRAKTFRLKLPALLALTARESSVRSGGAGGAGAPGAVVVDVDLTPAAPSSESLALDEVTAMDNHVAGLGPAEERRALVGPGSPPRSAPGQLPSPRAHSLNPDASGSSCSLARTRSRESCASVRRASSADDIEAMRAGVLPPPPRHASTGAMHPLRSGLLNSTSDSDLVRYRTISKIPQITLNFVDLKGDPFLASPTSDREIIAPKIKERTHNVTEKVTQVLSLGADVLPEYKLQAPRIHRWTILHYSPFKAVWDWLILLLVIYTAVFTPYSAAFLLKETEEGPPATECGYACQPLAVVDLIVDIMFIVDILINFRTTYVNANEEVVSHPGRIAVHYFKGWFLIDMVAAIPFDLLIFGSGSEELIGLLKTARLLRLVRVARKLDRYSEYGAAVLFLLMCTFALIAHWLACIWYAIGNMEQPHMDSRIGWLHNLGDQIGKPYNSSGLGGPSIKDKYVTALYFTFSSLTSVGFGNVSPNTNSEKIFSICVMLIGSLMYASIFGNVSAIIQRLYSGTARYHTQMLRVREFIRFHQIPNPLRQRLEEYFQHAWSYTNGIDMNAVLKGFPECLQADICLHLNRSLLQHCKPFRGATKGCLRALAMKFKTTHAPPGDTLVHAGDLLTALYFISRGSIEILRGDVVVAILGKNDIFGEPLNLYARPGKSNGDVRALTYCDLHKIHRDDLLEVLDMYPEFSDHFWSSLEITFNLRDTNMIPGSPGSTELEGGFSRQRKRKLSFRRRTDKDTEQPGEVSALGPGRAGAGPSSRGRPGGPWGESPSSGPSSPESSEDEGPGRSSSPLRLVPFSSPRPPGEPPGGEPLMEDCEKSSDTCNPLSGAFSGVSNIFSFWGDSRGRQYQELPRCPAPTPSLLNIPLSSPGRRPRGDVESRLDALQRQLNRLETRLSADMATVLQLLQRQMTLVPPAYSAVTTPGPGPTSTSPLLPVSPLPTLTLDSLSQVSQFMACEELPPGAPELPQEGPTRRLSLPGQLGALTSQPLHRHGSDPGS

Compound	inhibition at 10 µM [1] [%]	hERG Patch Clamp hERG % blk (1 μM test cmpd) [2] [%]	hERG Patch Clamp hERG % blk (10 μM test cmpd) [2] [%]	other results
2-methyl-1-phenylpropan-2-yl 5-methyl-7-(naphthalen-1-yl)-4,7-dihydrotetrazolo[1,5-a]pyrimidine-6- [PT-264]				Late INa % blk [1]: 53.5%
CC1=C(C(=O)OCc2ccc(C(F)(F)F)cc2)C(c2cccc3ccccc23)n2nnnc2N1 (centres unmarked) [PT-051, 4-(trifluoromethyl)benzyl 5-methyl-7-(naphthalen-1-yl)-4,7-dihydrotetrazolo[1,5-a]pyrimidine-6-carboxylate]	16.9			
CC1=C(C(=O)O[C@@H](C)c2ccccc2)C(c2cc3ccccc3s2)n2nnnc2N1 (stereo partly drawn) [PT-056, (S)-1-phenylethyl 7-(benzo[b]thiophen-2-yl)-5-methyl-4,7-dihydrotetrazolo[1,5-a]pyrimidine-6-carboxylate]				Late INa % blk [1]: 7.8%
CC1=C(C(=O)O[C@@H](C)c2ccccc2)C(c2cc3ccccc3s2)n2nnnc2N1 (stereo partly drawn) [PT-057, (S)-1-phenylethyl 7-(benzo[b]thiophen-2-yl)-5-methyl-4,7-dihydrotetrazolo[1,5-a]pyrimidine-6-carboxylate]	71			
CC1=C(C(=O)O[C@@H](C)c2ccccc2)C(c2cc3ccccc3o2)n2nnnc2N1 (stereo partly drawn) [PT-059, (S)-1-phenylethyl 7-(benzofuran-2-yl)-5-methyl-4,7-dihydrotetrazolo[1,5-a]pyrimidine-6-carboxylate]		10	66.5	Late INa % blk [1]: 57.7%
CCOC(=O)C1=C(C)NC(C)=C(C(=O)OCC)C1c1ccc2c(c1)OCCO2 [PT-109, diethyl 4-(2,3-dihydrobenzo[b][1,4]dioxin-6-yl)-2,6-dimethyl-1,4-dihydropyridine-3,5-dicarboxylate]	76.5	16	38.5	CaL Plate Assay % blk (1 μM test cmpd) [3]: 4%; CaL Plate Assay % blk (10 μM test cmpd) [3]: 53%
CC1=C(C(=O)OC(C)C)C(c2c[nH]nc2-c2ccc(F)cc2)C(C(=O)OC(C)C)=C(C)N1 [PT-128, diisopropyl 4-(3-(4-fluorophenyl)-1H-pyrazol-4-yl)-2,6-dimethyl-1,4-dihydropyridine-3,5-dicarboxylate]	34.1			
CC1=C(C(=O)N2CCC(c3ccccc3)CC2)C(c2ccsc2)C2=C(CCCC2=O)N1 (centres unmarked) [PT-163, 2-methyl-3-(4-phenylpiperidine-1-carbonyl)-4-(thiophen-3-yl)-4,6,7,8-tetrahydroquinolin-5(1H)-one]		15	53.5	CaL Plate Assay % blk (1 μM test cmpd) [3]: 5%; CaL Plate Assay % blk (10 μM test cmpd) [3]: 17%; effect on late sodium current [1]: potentiated late sodium current
CC1=C(C(=O)N2CCN(c3ccccc3)CC2)C(c2ccc3ccccc3c2)C2=C(CCCC2=O)N1 (centres unmarked) [PT-165, 2-methyl-4-(naphthalen-2-yl)-3-(4-phenylpiperazine-1-carbonyl)-4,6,7,8-tetrahydroquinolin-5(1H)-one]		30.5	64.5	CaL Plate Assay % blk (1 μM test cmpd) [3]: 0%; CaL Plate Assay % blk (10 μM test cmpd) [3]: 2%; effect on late sodium current [1]: potentiated late sodium current
CC1=C(C(=O)N2CCN(c3ccccc3)CC2)C(c2ccsc2)C2=C(CCCC2=O)N1 (centres unmarked) [PT-166, 2-methyl-3-(4-phenylpiperazine-1-carbonyl)-4-(thiophen-3-yl)-4,6,7,8-tetrahydroquinolin-5(1H)-one]				effect on late sodium current [1]: potentiated late sodium current
CC1=C(C(=O)Nc2c(C)cccc2C)C(c2ccsc2)C2=C(CCCC2=O)N1 (centres unmarked) [PT-180, N-(2,6-dimethylphenyl)-2-methyl-5-oxo-4-(thiophen-3-yl)-1,4,5,6,7,8-hexahydroquinoline-3-carboxamide]	-4.7			
CC1=C(C(=O)OCc2ccccc2)C(c2cccc3ccccc23)n2nnnc2N1C (centres unmarked) [PT-195, benzyl 4,5-dimethyl-7-(naphthalen-1-yl)-4,7-dihydrotetrazolo[1,5-a]pyrimidine-6-carboxylate]		12.5	49	CaL Plate Assay % blk (1 μM test cmpd) [3]: 0%; CaL Plate Assay % blk (10 μM test cmpd) [3]: 88%
CC1=C(C(=O)OCCc2nnn[nH]2)C(c2cccc3ccccc23)n2nnnc2N1 (centres unmarked) [PT-247, 2-(1H-tetrazol-5-yl)ethyl 5-methyl-7-(naphthalen-1-yl)-4,7-dihydrotetrazolo[1,5-a]pyrimidine-6-carboxylate]	0.3			
CC1=C(C(=O)N2CCC(c3ccc(C(N)=O)cc3)CC2)C(c2cccc3ccccc23)C2=C(CCCC2=O)N1 (centres unmarked) [PT-287, 4-(1-(2-methyl-4-(naphthalen-1-yl)-5-oxo-1,4,5,6,7,8-hexahydroquinoline-3-carbonyl)piperidin-4-yl)benzamide]	8.6			
COC(=O)C1=C(C)Nc2nnnn2C1c1ccccc1 (centres unmarked) [PT-514, methyl 5-methyl-7-phenyl-4,7-dihydrotetrazolo[1,5-a]pyrimidine-6-carboxylate]	6			
CC1=C(C(=O)OCc2ccccc2)C(c2ccccc2-c2ccc(NS(C)(=O)=O)cc2)n2nnnc2N1 (centres unmarked) [PT-530, benzyl 5-methyl-7-(4′-(methylsulfonamido)biphenyl-2-yl)-4,7-dihydrotetrazolo[1,5-a]pyrimidine-6-carboxylate]	88.3	13	48	
CC1=C(C(=O)OCc2ccccc2Br)C(c2c(Cl)cccc2Cl)n2nnnc2N1 (centres unmarked) [PT-531, 2-bromobenzyl 7-(2,6-dichlorophenyl)-5-methyl-4,7-dihydrotetrazolo[1,5-a]pyrimidine-6-carboxylate]	51.2			
CC1=C(C(=O)OCc2ccccc2Br)C(c2c(Cl)cccc2Cl)n2nnnc2N1Cc1nnn[nH]1 (centres unmarked) [PT-532, 2-bromobenzyl 4-((1H-tetrazol-5-yl)methyl)-7-(2,6-dichlorophenyl)-5-methyl-4,7-dihydrotetrazolo[1,5-a]pyrimidine-6-carboxylate]	35.6			
COC(=O)C1=C(C)N(CC(=O)O)c2nnnn2C1c1sc2ccccc2c1Br (centres unmarked) [PT-533, 2-(7-(3-bromobenzo[b]thiopben-2-yl)-6-(methoxycarbonyl)-5-methyltetrazolo[1,5-a]pyrimidin-4(7H)-yl)acetic acid]				Late INa % blk [1]: 12%
COC(=O)C1=C(C)N(Cc2nnn[nH]2)c2nnnn2C1c1sc2ccccc2c1Br (centres unmarked) [PT-534, methyl 4-((1H-tetrazol-5-yl)methyl)-7-(3-bromobenzo[b]thiophen-2-yl)-5-methyl-4,7-dihydrotetrazolo[1,5-a]pyrimidine-6-carboxylate]	18.2			
COC(=O)c1ccc(C2CCN(C(=O)C3=C(C)NC4=C(C(=O)CCC4)C3c3cccc4ccccc34)CC2)cc1 (centres unmarked) [PT-535, methyl 4-(1-(2-methyl-4-(naphthalen-1-yl)-5-oxo-1,4,5,6,7,8-hexahydroquinoline-3-carbonyl)piperidin-4-yl)benzoate]	4.2			
H-furo[3,4-e]pyrazolo[3,4-b]pyridin-5(4H)-one [PT-079]		57.5	96.5	Late INa % blk [1]: 49%
H-indol-5-yl)phenyl)-5-methyl-4,7-dihydrotetrazolo[1,5-a]pyrimidine-6-carboxylate [PT-505]				Late INa % blk [1]: 69.6%
